The values that follow come from patent US10968232B2 (Merck Sharp & Dohme Corp., priority 2016, dated 2021).

In the assay the target is T1, human GPR40 (Homo sapiens, UniProt O14842).
T1 construct: expressed in transfected cells
Put plainly: Inositol Phosphate Turnover (IP1) Assay. It is filed as cell-based. The settings on record: HEK cells stably expressing human GPR40; CisBio IP-One kit; 60 minutes at 37 degrees; read-out: Human IP1 EC50. The protocol:
Human GPR40 stable cell-lines were generated in HEK cells. The expression plasmids were transfected using lipofectamine (Life Technologies) following manufacturer's instructions. Stable cell-lines were generated following drug selection and single cell cloning. The assay was performed in 384-well format. HEK cells stably expressing human GPR40 were plated at 7500 cells per well in growth medium (DMEM/10% fetal calf serum). Cell plates were then incubated 16 hours at 37 degrees in a 5% CO2 incubator. Measurement of Inositol Phosphate Turnover (IP1) was performed using the CisBio IP-One kit (Part number 62IPAPEB). After the 16 hour incubation, the growth media was removed by centrifugation using the BlueWasher (AusWasher GUI Ver. v1.0.1.8) Protocol #21-“Light Dry” and 10 ul of stimulation buffer (prepared as described in the kit) was added to each well. In a separate plate, compounds were diluted in DMSO (200-fold over the final concentration in the assay well) and 50 nl was acoustically transferred to the appropriate well in the assay cell plate. The plates were then incubated for 60 minutes at 37 degrees in a 5% CO2 incubator. 10 ul of detection buffer (also prepared as described in the IP-One kit) was added to each well and the plates were incubated at room temperature for 60 minutes in the dark. The plates were then read in a Perkin Elmer EnVision or equivalent reader able to measure FRET. […] Data was normalized to % activity using a reference compound and EC50s determined using a standard 4-parameter fit.

T1 sequence (O14842 whole entry): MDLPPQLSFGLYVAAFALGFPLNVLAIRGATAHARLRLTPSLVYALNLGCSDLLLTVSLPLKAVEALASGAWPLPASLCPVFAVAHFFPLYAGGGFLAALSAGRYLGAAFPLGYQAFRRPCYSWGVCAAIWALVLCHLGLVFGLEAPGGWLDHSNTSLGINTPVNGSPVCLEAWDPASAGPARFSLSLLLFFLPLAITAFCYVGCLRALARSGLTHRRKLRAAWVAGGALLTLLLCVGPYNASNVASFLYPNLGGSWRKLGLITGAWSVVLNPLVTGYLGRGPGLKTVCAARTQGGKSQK

As usually defined, the EC50 is the concentration giving half of the maximal effect. As for `C[C@H](C(=O)O)[C@H](c1ccc2c(c1)OC1(CC2)CCN(c2ccccc2C(F)(F)F)CC1)C1CC1` [Example 35, sodium (2S,3R)-3-cyclopropyl-2-methyl-3-(1′-(2-(trifluoromethyl)phenyl)-spiro[chroman-2,4′-piperidin]-7-yl)propanoate], the concentration for a half-maximal effect (EC50) was determined as 5.79 nM.
Then `CC(c1cc(Cl)ccc1F)N1CCC2(CCc3ccc([C@H](C4CC4)[C@H](C)C(=O)O)cc3O2)CC1` (single isomer, unassigned) [Example 78, (2S,3R)-3-(1′-((R or S)-1-(5-chloro-2-fluorophenyl)ethyl)spiro[chroman-2,4′-piperidin]-7-yl)-3-cyclopropyl-2-methylpropanoic Acid], with 14.3 nM; and `C[C@H](C(=O)O)[C@H](c1ccc2c(c1)OC1(CC2)CCN(c2ccnc(C(F)(F)F)c2)CC1)C1CC1` [Example 40, (2S,3R)-3-cyclopropyl-2-methyl-3-(1′-(2-(trifluoromethyl)pyridin-4-yl)spiro-[chroman-2,4′-piperidin]-7-yl)propanoic Acid], with 167 nM; and `CCC(c1cc(Cl)ccc1OC(F)(F)F)N1CCC2(CCc3ccc([C@H](C4CC4)[C@H](C)C(=O)O)cc3O2)CC1` (stereo partly drawn) [Example 110, (2S,3R)-3-(1′-(1-(5-chloro-2-(trifluoromethoxy)phenyl)propyl)spiro[chroman-2,4′-piperidin]-7-yl)-3-cyclopropyl-2-methylpropanoic Acid], with 0.812 nM.
Consider `C[C@H](C(=O)O)[C@H](c1ccc2c(c1)OC1(CC2)CCN([C@@H](C)c2cc(F)ccc2OC(F)(F)F)CC1)C1CC1` [Example 132, Sodium (2S,3R)-3-cyclopropyl-3-(1′-((S)-1-(5-fluoro-2-(trifluoromethoxy)phenyl)ethyl)spiro[chromane-2,4′-piperidin]-7-yl)-2-methylpropanoate], for which the EC50 amounted to 11.2 nM.
Regarding `C[C@H](C(=O)O)[C@H](c1ccc2c(c1)OC1(CC2)CCC(Nc2cc(C(F)(F)F)ccc2C(F)(F)F)CC1)C1CC1` (single isomer, unassigned) [Example 64], the EC50 was 27.9 nM.
Next, `C[C@H](C(=O)O)[C@H](c1ccc2c(c1F)OC1(CC2)CCN(Cc2cc(C(F)(F)F)ccc2C(F)(F)F)CC1)C1CC1` [Example 8, (2S,3R)-3-(1′-(2,5-bis-(trifluoromethyl)benzyl)-8-fluoro-spiro[chroman-2,4′-piperidin]-7-yl)-3-cyclopropyl-2-methyl-propanoic acid]: 20.6 nM.
Regarding `CCc1[nH]c(C(=O)O)cc1-c1ccc(OC(F)(F)F)c(C(C)N2CCC3(CCc4ccc([C@H](C5CC5)[C@H](C)C(=O)O)cc4O3)CC2)c1` (single isomer, unassigned) [Example 120, 4-(3-((S or R)-1-(7-((1R,2S)-2-carboxy-1-cyclopropylpropyl)spiro[chro-man-2,4′-piperidin]-1′-yl)ethyl)-4-(trifluoro-methoxy)phenyl)-5-ethyl-1H-pyrrole-2-carboxylic acid], the concentration giving a half-maximal response (EC50) amounted to 501 nM.
Turning to `C[C@H](C(=O)O)[C@H](c1ccc2c(c1)OC1(CC2)CCN(S(=O)(=O)c2cc(Cl)ccc2Cl)CC1)C1CC1` [Example 46, (2S,3R)-3-cyclopropyl-3-(1′-((2,5-dichloro-phenyl)sulfonyl)spiro [chroman-2,4′-piperidin]-7-yl)-2-methyl-propanoic acid], the EC50 came to 22.6 nM.
Consider `Cc1cc(-c2ccc(OC(F)(F)F)c(C(C)N3CCC4(CCc5ccc([C@H](C6CC6)[C@H](C)C(=O)O)cc5O4)CC3)c2)n(C)n1` (mixture of isomers) [Example 114, (2S,3R)-3-cyclopropyl-3-(1′-((RS)-1-(5-(1,3-dimethyl-1H-pyrazol-5-yl)-2-(trifluoromethoxy)phenyl)eth-yl)spiro[chroman-2,4′-piperidin]-7-yl)-2-methylpropanoic acid], for which the EC50 was determined as 91.6 nM.
Next, `C[C@H](C(=O)O)[C@H](c1ccc2c(c1)OC1(CC2)CCN([C@@H](C)c2cc(C(F)(F)F)ccc2C(F)(F)F)CC1)C1CC1` [Example 131, Sodium (2S,3R)-3-(1′-((S)-1-(2,5-bis(trifluoromethyl)phenyl)ethyl)spiro[chromane-2,4′-piperidin]-7-yl)-3-cyclopropyl-2-methylpropanoate]: over 1000 nM; `C[C@H](C(=O)O)[C@H](c1ccc2c(c1)OC1(CC2)CCN(Cc2cc(C#N)ccc2OC(F)(F)F)CC1)C1CC1` [Example 124, (2S,3R)-3-(1′-(5-cyano-2-(trifluoro-methoxy)-benzyl)spiro[chroman-2,4′-piperidin]-7-yl)-3-cyclopropyl-2-methylpropanoic acid]: 64.1 nM; `C[C@H](C(=O)O)[C@H](c1ccc2c(c1)OC1(CC2)CCN(Cc2cc(C#N)ccc2C(F)(F)F)CC1)C1CC1` [Example 60, (2S,3R)-3-(1′-(5-cyano-2-(trifluoromethyl)benzyl)spiro[chroman-2,4′-piperidin]-7-yl)-3-cyclopropyl-2-methylpropanoic Acid]: 17.3 nM.
Turning to `CC(c1cc(Cl)ccc1OCC(F)(F)F)N1CCC2(CCc3ccc([C@H](C4CC4)[C@H](C)C(=O)O)cc3O2)CC1` (single isomer, unassigned) [Example 62, (2S,3R)-3-(1′-((R or S)-1-(5-chloro-2-(2,2,2-trifluoroethoxy)phenyl)ethyl)spiro [chroman-2,4′-piperidin]-7-yl)-3-cyclopropyl-2-methylpropanoic Acid], the EC50 came out at 386 nM.
For `CC(c1cc(Cl)cc(Cl)c1OC(F)F)N1CCC2(CCc3ccc([C@H](C4CC4)[C@H](C)C(=O)O)cc3O2)CC1` (single isomer, unassigned) [Example 79, (2S,3R)-3-cyclopropyl-3-(1′-((R or S)-1-(3,5-dichloro-2-(difluoromethoxy)phenyl)-ethyl)spiro[chroman-2,4′-piperidin]-7-yl)-2-methylpropanoic Acid], the EC50 came to 2.44 nM.
Turning to `CC(c1nc(C(F)(F)F)ccc1Cl)N1CCC2(CCc3ccc([C@H](C4CC4)[C@H](C)C(=O)O)cc3O2)CC1` (single isomer, unassigned) [Example 30], the 50% effective concentration (EC50) was determined as 50.4 nM.
With `C[C@H](C(=O)O)[C@H](c1ccc2c(c1F)OC1(CC2)CCN(Cc2cc(Cl)ccc2OC(F)(F)F)CC1)C1CC1` [Example 4, (2S,3R)-3-(1′-(5-chloro-2-(trifluoromethoxy)benzyl)-8-fluorospiro[chroman-2,4′-piperidin]-7-yl)-3-cyclopropyl-2-methylpropanoic Acid], the EC50 worked out at 8.06 nM.
On to `CC(c1nc(C(F)(F)F)ccc1Cl)N1CCC2(CCc3ccc([C@H](C4CC4)[C@H](C)C(=O)O)cc3O2)CC1` (single isomer, unassigned) [Example 31], for which the EC50 turned out to be 49.9 nM.
For `CCC(c1cc(C(F)(F)F)cc(Cl)c1F)N1CCC2(CCc3ccc([C@H](C4CC4)[C@H](C)C(=O)O)cc3O2)CC1` (stereo partly drawn) [Example 109, (2S,3R)-3-(1′-(1-(3-chloro-2-fluoro-5-(tri-fluromethyl)phenyl)propyl)spiro[chroman-2,4′-piperidin]-7-yl)-3-cyclopropyl-2-methylpropanoic acid], the EC50 was determined as 2.51 nM.
Take `C[C@H](C(=O)O)[C@H](c1ccc2c(c1)OC1(CC2)CCC(N(C)c2ncccc2C(F)(F)F)CC1)C1CC1` (single isomer, unassigned) [Example 63]: the EC50 was 2.98 nM.
Regarding `C[C@H](C(=O)O)[C@H](c1ccc2c(c1F)OC1(CC2)CCN([C@H](C)c2cc(C(F)(F)F)ccc2C(F)(F)F)CC1)C1CC1` [Example 6, (2S,3R)-3-(1′-((R)-1-(2,5-bis(trifluoromethyl)-phenyl)ethyl)-8-fluoro-spiro[chroman-2,4′-piperidin]-7-yl)-3-cyclo-propyl-2-methyl-propanoic acid], the EC50 worked out at 12.1 nM.
In the case of `C[C@H](C(=O)O)[C@H](c1ccc2c(c1)OC1(CC2)CCC(Nc2ncccc2C(F)(F)F)CC1)C1CC1` (single isomer, unassigned) [Example 68], the EC50 was 0.41 nM.
Take `COc1cc(C(C)N2CCC3(CCc4ccc([C@H](C5CC5)[C@H](C)C(=O)O)cc4O3)CC2)c(C(F)(F)F)cn1` (single isomer, unassigned) [Example 106, sodium (2S,3R)-3-cyclo-propyl-3-(1′-((R or S)-1-(2-methoxy-5-(trifluoro-methyl)pyridin-4-yl)ethyl)spiro[chroman-2,4′-piperidin]-7-yl)-2-methylpropanoate]: the EC50 stood at 15.6 nM.
With `CC(c1cc(C(F)(F)F)ccc1C1CC1)N1CCC2(CCc3ccc([C@H](C4CC4)[C@H](C)C(=O)O)c(F)c3O2)CC1` (single isomer, unassigned) [Example 14, sodium (2S,3R)-3-cyclo-propyl-3-(1′-((S or R)-1-(2-cyclopropyl-5-(trifluoromethyl)phenyl)-ethyl)-8-fluorospiro [chroman-2,4′-piperidin]-7-yl)-2-methylpropanoate], the EC50 was 36.3 nM.
Then `C[C@H](C(=O)O)[C@H](c1ccc2c(c1)OC1(CC2)CC(N[C@H](C)c2cc(C(F)(F)F)ccc2C(F)(F)F)C1)C1CC1` (stereo partly drawn) [Example 91, (2S,3R)-3-(3′-((1-(2,5-bis(trifluoromethyl)phenyl)ethyl)amino)spiro[chroman-2,1′-cyclobutan]-7-yl)-3-cyclopropyl-2-methylpropanoic Acid], with 8.62 nM.
